KD and binding data for 27 compounds are collected here from paper doi:10.1101/2024.09.13.612887 (2024).

Each structure is given as a SMILES string.

The subject of one assay is F. ulcerans ZTP riboswitch SPR construct RNA (RNA, riboswitch) UAUCAGUUAUAUGACUGACGGAACGUGGAAUUAACCACAUGAAGUAUAACGAUGACAAUGCCGACCGUCUGGGCGUUCAUUAGCGGUAUUCCGGAAC …. Put plainly: SPR. The settings on record: 150 mM KCl, 10 mM MgCl2; 50 mM HEPES-KOH pH 7.4, 0.005% Tween-20, 5% DMSO; apparent, no saturation, exceeds 1:1 Rmax.
Take `NC(=O)c1ncn(-c2ccc(-c3cnc[nH]3)cc2)c1N`: the KD is on record as ~ 900 nM.

The next assay has as its system F. ulcerans ZTP riboswitch ITC construct RNA (aptamer domain) (RNA, riboswitch) UAUCAGUUAUAUGACUGACGGAACGUGGAAUUAACCACAUGAAGUAUAACGAUGACAAUGCCGACCGUCUGGGCG
Put plainly: ITC. The conditions noted are these: 150 mM KCl, 10 mM MgCl2; 50 mM HEPES-KOH pH 7.4, 37 °C; table value, text b16 says KD >30 μM.
As for `COc1ccncc1-n1cnc(C(N)=O)c1N`, the KD came out at 4.16 ± 0.68 µM.

The same assay, now with this note: 150 mM KCl, 10 mM MgCl2; 50 mM HEPES-KOH pH 7.4, up to 3% DMSO, 37 °C.
As for `NC(=O)c1ncn(-c2cncnc2)c1N`, the KD amounted to 1.22 ± 0.45 µM.

`NC(=O)c1cccc(-n2cnc(C(N)=O)c2N)c1` came in with a KD of 3.52 ± 0.60 µM.

For the compound `NC(=O)c1ncn(-c2ccc(Cl)nc2)c1N`, the KD amounted to 2.19 ± 1.4 µM.

As to `NC(=O)c1ncn(-c2cccc(O)c2)c1N`, the KD came out at 2.47 ± 0.37 µM.

As for `COc1ccc(-n2cnc(C(N)=O)c2N)cn1`, the KD came out at 2.45 ± 0.44 µM.

The compound `NC(=O)c1ncn(-c2cnc3ncccc3c2)c1N` yielded a KD of 0.778 ± 0.28 µM.

With `NC(=O)c1ncn(-c2ccc(NCc3ccccc3)nc2)c1N`, the KD amounted to 13.8 ± 1.5 µM.

Take `CNc1ccc(-n2cnc(C(N)=O)c2N)cn1`: the KD came to 2.40 ± 0.36 µM.

As to `NC(=O)c1ncn(Cc2ccncc2)c1N`, the KD turned out to be 15.0 ± 7.1 µM.

Consider `NC(=O)c1ncn(-c2ccc(-c3ncc[nH]3)nc2)c1N`, for which the KD is 3.18 ± 0.44 µM.

For the compound `NC(=O)c1ncn(-c2ccc3ncccc3c2)c1N`, the KD turned out to be 1.28 ± 0.26 µM.

Turning to `NC(=O)c1ncn(-c2cnc3cccnc3c2)c1N`, the KD was found to be 0.864 ± 0.21 µM.

Consider `NC(=O)c1ncn(-c2ccc3[nH]ccc3c2)c1N`, for which the KD worked out at 3.20 ± 1.3 µM.

`NC(=O)c1ncn(-c2ccc3cccnc3c2)c1N` yielded a KD of 1.36 ± 0.17 µM.

`NC(=O)c1ncn(-c2ccc3cc[nH]c3c2)c1N`: the KD stood at 4.99 ± 0.64 µM.

On to `NC(=O)c1ncn(-c2ccccc2)c1N`, for which the KD was 1.84 ± 0.41 µM.

In the case of `NC(=O)c1ncn(-c2ccc(-c3cnc[nH]3)cc2)c1N`, the KD is 1.46 ± 0.21 µM.

The assay is the same for the next values; noted with them: 150 mM KCl, 10 mM MgCl2; 50 mM HEPES-KOH pH 7.4, up to 3% DMSO, 37 °C; N.B. (>30 μM or not measurable).
In the case of `Cc1ncccc1-n1cnc(C(N)=O)c1N`, the KD was over 30 µM.

As to `NC(=O)c1ncn([C@H]2CCCNC2)c1N`, the KD is over 30 µM.

`NC(=O)c1ncn(Cc2cnccn2)c1N` gave a KD of over 30 µM.

Regarding `NC(=O)c1ncn(-c2cccc3cccnc23)c1N`, the KD is over 30 µM.

On to `NC(=O)c1ncn([C@@H]2CCCNC2)c1N`, for which the KD is over 30 µM.

Regarding `NC(=O)c1cn(-c2ccncc2)cn1`, the KD is over 30 µM.

With `NC(=O)c1ncn(Cc2ccccc2)c1N`, the KD was over 30 µM.

The assay is the same for the next values; noted with them: 150 mM KCl, 10 mM MgCl2; 50 mM HEPES-KOH pH 7.4, up to 3% DMSO, 37 °C; text prints 13.7 ± 7.8.
In turn, `NC(=O)c1nnn(-c2cccnc2)c1N` displayed a KD of 13.5 ± 7.85 µM.

For a further assay, the system named is S. ondontolytica ZTP riboswitch used for crystallography (64-nt) (RNA, riboswitch, 5'-hydroxyl (hammerhead-cleaved, lacks 5'-phosphate)) GGGUCGUGACUGGCGAACAGGUGGGAAACCACCGGGGAGCGACCCUUGCCGCCCGCCUGGGCAA
As to the kind of experiment: X-ray crystallography. The settings on record: Mg2+; co-crystal structure, 2.2 Å, partially refined.
For the compound `NC(=O)c1ncn(-c2cnc3ncccc3c2)c1N`, the binding result is reported as “yes”.

Still in this assay, the particulars now being: Mg2+; co-crystal structure, 2.4 Å.
`NC(=O)c1ncn(-c2cccnc2)c1N`: the binding entry is listed as “yes”.
